Measured values: patent publication US11634417B2 (Array BioPharma Inc., priority 2019, dated 2023)

Experiments:
[1] = target: T1, full-length SHP2 (Homo sapiens, UniProt Q06124); assay: SHP2 enzymatic assay (fluorescence intensity kinetic assay, DiFMUP hydrolysis); format: biochemical; settings: 1 nM His6-tagged SHP2(2-527), 1 μM activating peptide, 50 μM DiFMUP; single assay or mean of multiple assays; read-out: Biological Example 1 IC50
T1 construct: 1 nM full-length SHP2 (His6-tagged SHP2(2-527), recombinantly expressed in E. coli and purified in-house); His6; made in house; host or cells: E. coli
T1 sequence (Q06124 2-527): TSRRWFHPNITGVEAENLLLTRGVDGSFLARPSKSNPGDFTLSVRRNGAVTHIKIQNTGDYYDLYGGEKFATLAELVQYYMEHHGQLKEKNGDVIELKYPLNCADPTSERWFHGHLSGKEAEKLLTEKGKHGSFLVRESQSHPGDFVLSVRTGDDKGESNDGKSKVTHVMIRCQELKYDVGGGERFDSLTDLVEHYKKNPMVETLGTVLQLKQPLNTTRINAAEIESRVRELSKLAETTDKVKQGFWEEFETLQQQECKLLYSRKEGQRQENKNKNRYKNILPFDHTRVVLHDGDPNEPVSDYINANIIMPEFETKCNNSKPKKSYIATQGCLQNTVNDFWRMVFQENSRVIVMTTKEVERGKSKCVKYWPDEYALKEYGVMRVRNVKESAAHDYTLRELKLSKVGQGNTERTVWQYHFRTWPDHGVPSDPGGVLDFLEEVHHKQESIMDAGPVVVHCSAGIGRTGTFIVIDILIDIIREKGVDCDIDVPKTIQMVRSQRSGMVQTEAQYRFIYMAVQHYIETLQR
Description: A fluorescence intensity kinetic assay was configured for full-length SHP2 that monitors the amount of 6,8-difluoro-7-hydroxy-4-methylcoumarin (“DiFMU”) formed upon hydrolysis of 6,8-difluoro-4-methylumbelliferyl phosphate (“DiFMUP”) by SHP2. […] Low control wells lacked enzyme. The assays were initiated by the addition of a mixture of SHP2 and the activating peptide, and following a 15 second mix on an orbital shaker, were read in kinetic mode for 15 minutes (30 seconds/cycle) at ambient temperature on a PerkinElmer EnVision microplate reader (kEx=355 nm, kEm=460 nm). Initial velocities (slopes of the tangents at t=0) were estimated from exponential fits to the slightly nonlinear progress curves and then were converted to percent of control (“POC”) using the following equation:
[formula] • Where: xmax Average Uninhibited Controls • Xmin Average Background A 4-parameter logistic model was the fit to the POC data for each compound. From that fit, the IC50 was estimated and is defined as the concentration of compound at which the curve crosses 50 POC.

[2] = tested on: ERK1/2 (Thr202/Tyr204) phosphorylation in KYSE520 cells; assay: Cellular Phospho-p44/42 MAPK (Erk1/2) (Thr202/Tyr204) assay, In-Cell Western; format: cell-based; settings: Homo sapiens, KYSE-520; KYSE520 cells, 1 hour incubation, pERK signal normalized to GAPDH; single assay or mean of multiple assays; read-out: Biological Example 2 IC50
Description: Inhibition of ERK1/2 (Thr202/Tyr204) phosphorylation was determined by the following cellular assay, which comprises incubating cells with a compound for 1 hour and quantifying pERK signal by In-Cell Western on fixed cells and normalizing to GAPDH signal. KYSE520 cells were obtained from DSMZ and grown in RPMI supplemented with 10% fetal bovine serum, penicillin/streptomycin, 2 mM L-alanyl-L-glutamine dipeptide in 0.85% NaCl (Glutamax™), non-essential amino acids, and sodium pyruvate. Cells were plated in 96-well plates at 30,000 cells/well and allowed to attach overnight at 37° C./5% CO2. Cells were treated with compounds prepared as a 10-point, 1:3 dilution series (range: 20 μM-1 nM), with a final DMSO concentration of 0.5%. After 1 hour incubation, cells were fixed in 3.7% formaldehyde in Dulbecco's phosphate-buffered saline (“dPBS”) at room temperature for 20 minutes. Cells were then washed with dPBS and permeabilized in 100% MeOH at room temperature for 10 minutes. Following permeabilization, cells were washed in dPBS and incubated in LI-COR Blocking Buffer (LI-COR Biosciences, Cat #927-40000) for 1 hour or longer. Plates were then incubated with an antibody specific for the MEK-dependent ERK1/2 phosphorylation sites, threonine 202 and tyrosine 204 (Cell Signaling Technologies; Cat #9101), downstream of SHP2 in the MAP kinase signal transduction pathway, as well as GAPDH (Millipore; Cat #MAB374). pErk1/2 (Thr202/Tyr204) antibody was diluted in LI-COR blocking buffer containing 0.05% polysorbate-20 (Tween-20) at 1:250; GAPDH was diluted at 1:2,500. The plates were incubated overnight at 4° C. After washing with PBS/0.05% Tween-20, the cells were incubated with fluorescently-labeled secondary antibodies (Anti-rabbit-Alexa Flour680, Invitrogen Cat #A21109; Anti-mouse-IRDye800CW, Li-cor Bioscieces Cat #926-32210, both at 1:1000 dilution) for 1 hour. Cells were then washed, as above, and analyzed for fluorescence at both 680 nm and 800 nm wavelengths using the Aerius Infrared Imaging System (LI-COR Biosciences, Model 9250). Phosphorylated Erk1/2 ([…]) signal was normalized to GAPDH signal for each well. IC50 values were calculated from the normalized values using a 4-parameter fit in BioAssay software. The reported IC50 in Table 2 may be from a single assay or the mean of multiple assays.

## N[C@@H]1c2ccccc2CC12CCN(c1ncc(Cc3ccccc3)nn1)CC2 [Example 33, (S)-1′-(6-benzyl-1,2,4-triazin-3-yl)-1,3-dihydrospiro[indene-2,4′-piperidin]-1-amine]
[1]
  IC50: 0.098 µM
[2]
  IC50: 0.366 µM

## Nc1c(Cl)c(Sc2cnc(N3CCC4(CC3)Cc3ccccc3[C@H]4N)nn2)cc[n+]1[O-] [Example 34, (S)-2-amino-4-((3-(1-amino-1,3-dihydrospiro[indene-2,4′-piperidin]-1′-yl)-1,2,4-triazin-6-yl)thio)-3-chloropyridine 1-oxide]
[1]
  IC50: 0.079 µM
[2]
  IC50: 0.009 µM

## Nc1nccc(Sc2cnc(N3CCC4(CC3)Cc3c(Cl)cccc3[C@H]4N)nn2)c1Cl [Example 35, (S)-1′-(6-((2-amino-3-chloropyridin-4-yl)thio)-1,2,4-triazin-3-yl)-4-chloro-1,3-dihydrospiro[indene-2,4′-piperidin]-1-amine]
[1]
  IC50: 0.026 µM
[2]
  IC50: 0.009 µM

## CC(C)(C#N)CNc1nccc(Sc2cnc(N3CCC4(CC3)Cc3ccccc3[C@H]4N)nn2)c1Cl [Example 36, (S)-3-((4-((3-(1-amino-1,3-dihydrospiro[indene-2,4′-piperidin]-1′-yl)-1,2,4-triazin-6-yl)thio)-3-chloropyridin-2-yl)amino)-2,2-dimethylpropanenitrile]
[1]
  IC50: 0.11 µM
[2]
  IC50: 0.017 µM

## N[C@@H]1c2ccccc2CC12CCN(c1ncc(Sc3cccc4c3CC4)nn1)CC2 [Example 37, (S)-1′-(6-(bicyclo[4.2.0]octa-1(6),2,4-trien-2-ylthio)-1,2,4-triazin-3-yl)-1,3-dihydrospiro[indene-2,4′-piperidin]-1-amine]
[1]
  IC50: 0.011 µM
[2]
  IC50: 0.031 µM

## N[C@@H]1c2cccnc2CC12CCN(c1ncc(Sc3cccc4c3CC4)nn1)CC2 [Example 38, (S)-1′-(6-(bicyclo[4.2.0]octa-1(6),2,4-trien-2-ylthio)-1,2,4-triazin-3-yl)-5,7-dihydrospiro[cyclopenta[b]pyridine-6,4′-piperidin]-5-amine]
[1]
  IC50: 0.013 µM
[2]
  IC50: 0.041 µM

## CNc1nccc(Sc2cnc(N3CCC4(CC3)Cc3ncccc3[C@H]4N)nn2)c1Cl [Example 39, (S)-1′-(6-((3-chloro-2-(methylamino)pyridin-4-yl)thio)-1,2,4-triazin-3-yl)-5,7-dihydrospiro[cyclopenta[b]pyridine-6,4′-piperidin]-5-amine]
[1]
  IC50: 0.078 µM
[2]
  IC50: 0.011 µM

## Cc1ccc2c(c1)[C@@H](N)C1(CCN(c3ncc(Sc4ccnc(N)c4Cl)nn3)CC1)C2 [Example 45, (S)-1′-(6-((2-amino-3-chloropyridin-4-yl)thio)-1,2,4-triazin-3-yl)-6-methyl-1,3-dihydrospiro[indene-2,4′-piperidin]-1-amine]
[1]
  IC50: 0.014 µM
[2]
  IC50: 0.002 µM

## Nc1nccc(Sc2cnc(N3CCC4(CC3)Cc3cc(Cl)ccc3[C@@H]4N)nn2)c1Cl [Example 46, (R)-1′-(6-((2-amino-3-chloropyridin-4-yl)thio)-1,2,4-triazin-3-yl)-5-chloro-1,3-dihydrospiro[indene-2,4′-piperidin]-1-amine]
[1]
  IC50: 0.091 µM
[2]
  IC50: 0.43 µM

## Cc1ccc2c(c1)[C@H](N)C1(CCN(c3ncc(Sc4ccnc(N)c4Cl)nn3)CC1)C2 [Example 47, (R)-1′-(6-((2-amino-3-chloropyridin-4-yl)thio)-1,2,4-triazin-3-yl)-6-methyl-1,3-dihydrospiro[indene-2,4′-piperidin]-1-amine]
[1]
  IC50: 0.038 µM
[2]
  IC50: 0.056 µM

## Cc1cccc2c1CC1(CCN(c3ncc(Sc4ccnc(N)c4Cl)nn3)CC1)[C@@H]2N [Example 48, (S)-1′-(6-((2-amino-3-chloropyridin-4-yl)thio)-1,2,4-triazin-3-yl)-4-methyl-1,3-dihydrospiro[indene-2,4′-piperidin]-1-amine]
[1]
  IC50: 0.03 µM
[2]
  IC50: 0.005 µM

## Cc1cccc2c1CC1(CCN(c3ncc(Sc4ccnc(N)c4Cl)nn3)CC1)[C@H]2N [Example 49, (R)-1′-(6-((2-amino-3-chloropyridin-4-yl)thio)-1,2,4-triazin-3-yl)-4-methyl-1,3-dihydrospiro[indene-2,4′-piperidin]-1-amine]
[1]
  IC50: 0.157 µM
[2]
  IC50: 0.126 µM

## Cc1nccc(Sc2cnc(N3CCC4(CC3)Cc3ccccc3[C@H]4N)nn2)c1C [Example 50, (S)-1′-(6-((2,3-dimethylpyridin-4-yl)thio)-1,2,4-triazin-3-yl)-1,3-dihydrospiro[indene-2,4′-piperidin]-1-amine]
[1]
  IC50: 0.044 µM
[2]
  IC50: 0.006 µM

## N[C@@H]1c2ccccc2CC12CCN(c1ncc(Sc3ccnc(C(F)(F)F)c3Cl)nn1)CC2 [Example 51, (S)-1′-(6-((3-chloro-2-(trifluoromethyl)pyridin-4-yl)thio)-1,2,4-triazin-3-yl)-1,3-dihydrospiro[indene-2,4′-piperidin]-1-amine]
[1]
  IC50: 0.093 µM
[2]
  IC50: 0.078 µM

## Nc1nccc(Sc2cnc(N3CCC4(CC3)Cc3ccccc3[C@H]4N)nn2)c1Br [Example 52, (S)-1′-(6-((2-amino-3-bromopyridin-4-yl)thio)-1,2,4-triazin-3-yl)-1,3-dihydrospiro[indene-2,4′-piperidin]-1-amine]
[1]
  IC50: 0.027 µM
[2]
  IC50: 0.002 µM

## CNc1nccc(Sc2cnc(N3CCC4(CC3)Cc3ccccc3[C@H]4N)nn2)c1Cl [Example 53, (S)-1′-(6-((3-chloro-2-(methylamino)pyridin-4-yl)thio)-1,2,4-triazin-3-yl)-1,3-dihydrospiro[indene-2,4′-piperidin]-1-amine]
[1]
  IC50: 0.046 µM
[2]
  IC50: 0.004 µM

## Cc1nccc(Sc2cnc(N3CCC4(CC3)Cc3ccccc3[C@H]4N)nn2)c1Cl [Example 54, (S)-1′-(6-((3-chloro-2-methylpyridin-4-yl)thio)-1,2,4-triazin-3-yl)-1,3-dihydrospiro[indene-2,4′-piperidin]-1-amine]
[1]
  IC50: 0.062 µM
[2]
  IC50: 0.007 µM

## COc1nccc(Sc2cnc(N3CCC4(CC3)Cc3ccccc3[C@H]4N)nn2)c1Cl [Example 55, (S)-1′-(6-((3-chloro-2-methoxypyridin-4-yl)thio)-1,2,4-triazin-3-yl)-1,3-dihydrospiro[indene-2,4′-piperidin]-1-amine]
[1]
  IC50: 0.116 µM
[2]
  IC50: 0.023 µM

## Cc1nc2c(s1)[C@H](N)C1(CCN(c3ncc(Sc4ccnc(N)c4Cl)nn3)CC1)C2 [Example 57, (R)-1′-(6-((2-amino-3-chloropyridin-4-yl)thio)-1,2,4-triazin-3-yl)-2-methyl-4,6-dihydrospiro[cyclopenta[d]thiazole-5,4′-piperidin]-6-amine]
[1]
  IC50: 0.643 µM
[2]
  IC50: 0.139 µM
